From ChEMBL document CHEMBL5325432, “Systematic study of 1,2,3-triazolyl sterols for the development of new drugs against parasitic Neglected Tropical Diseases” (Eur J Med Chem, 2023)
pIC50: −log10 of the molar value.

Assays:
[1] = system: Trypanosoma brucei; assay: Antiparasitic activity against Trypanosoma brucei assessed as parasite growth inhibition incubated for 3 days by Alamar blue assay; type: functional, organism-based; conditions: 72 h
[2] = system: Trypanosoma cruzi; assay: Antiparasitic activity against Trypanosoma cruzi epimastigotes assessed as parasite growth inhibition incubated for 14 days by Alamar blue assay; type: functional, organism-based; conditions: 336 h
[3] = system: Leishmania donovani; assay: Antileishmanial activity against Leishmania donovani S1 promastigotes assessed as parasite growth inhibition incubated for 72 hrs by Alamar blue assay; type: functional, organism-based; conditions: S1, 72 h
[4] = Selectivity index, ratio of IC50 for cytotoxicity against African green monkey Vero cells to IC50 for antileishmanial activity against Leishmania donovani S1 promastigotes assessed as parasite growth inhibition; type: toxicity, cell-based; conditions: read-out: Ratio IC50
[5] = Selectivity index, ratio of IC50 for cytotoxicity against African green monkey Vero cells to IC50 for antiparasitic activity against Trypanosoma cruzi epimastigotes assessed as parasite growth inhibition; type: toxicity, cell-based; conditions: read-out: Ratio IC50
[6] = Selectivity index, ratio of IC50 for cytotoxicity against African green monkey Vero cells to IC50 for antiparasitic activity against Trypanosoma brucei assessed as parasite growth inhibition; type: toxicity, cell-based; conditions: read-out: Ratio IC50
[7] = Cytotoxicity against African green monkey Vero cells incubated for 48 hrs; type: toxicity, cell-based; conditions: African green monkey (Chlorocebus sabaeus)
[8] = Cytotoxicity against human MRC5 cells incubated for 7 days by MTT colorimetric assay; type: toxicity, cell-based

| SMILES | pIC50 [1] | pIC50 [2] | pIC50 [3] | selectivity ratio [4] | selectivity ratio [5] | selectivity ratio [6] | IC50 at 48 h [7] | IC50 at 7 days [8] |
| --- | --- | --- | --- | --- | --- | --- | --- | --- |
| C[C@@H](NCc1cn(CCCc2ccccc2)nn1)[C@H]1CC[C@H]2[C@@H]3CC=C4C[C@@H](O)CC[C@]4(C)[C@H]3CC[C@]12C | 5.74 | 5.19 | 5.71 | > 5 | > 1.45 | > 5.18 | > 9420 nM |  |
| C[C@H](NCc1cn(CCCc2ccccc2)nn1)[C@H]1CC[C@H]2[C@@H]3CC=C4C[C@@H](O)CC[C@]4(C)[C@H]3CC[C@]12C | 5.84 | 5.65 | 5.87 | > 7.14 | > 4.36 | > 6.77 | > 9680 nM |  |
| CCCCCCCCn1cc(CN[C@@H](C)[C@H]2CC[C@H]3[C@@H]4CC=C5C[C@@H](O)CC[C@]5(C)[C@H]4CC[C@]23C)nn1 | 6.26 | 5.71 | 5.83 | > 6.67 | > 5.02 | > 17.8 | > 9790 nM |  |
| CC(=O)O[C@H]1CC[C@@]2(C)C(=CC[C@H]3[C@@H]4CC[C@H]([C@H](C)NCc5cn(Cc6ccccc6)nn5)[C@@]4(C)CC[C@@H]32)C1 | 6.70 | 5.59 | 5.60 | > 3.7 | > 3.69 | > 47.1 | > 9420 nM |  |
| C[C@H](NCc1cn(Cc2ccccc2)nn1)[C@H]1CC[C@H]2[C@@H]3CC=C4C[C@@H](O)CC[C@]4(C)[C@H]3CC[C@]12C | 6.17 | 6.48 | 5.88 | > 7.69 | > 31 | > 15 | > 10200 nM |  |
| CCCCCCCCn1cc(CNC[C@](C)(O)[C@H]2CC[C@H]3[C@@H]4CC=C5C[C@@H](O)CC[C@]5(C)[C@H]4CC[C@@]32C)nn1 | 6.20 | 5.09 | 5.84 | > 6.33 | > 1.14 | > 14.7 | > 9240 nM |  |
| C[C@]12CC[C@H]3[C@@H](CC=C4C[C@@H](O)CC[C@@]43C)[C@@H]1CC[C@@H]2[C@@](C)(O)CNCc1cn(Cc2ccccc2)nn1 | 6.92 | 5.08 | 5.71 | > 4.95 | > 1.16 | > 80.3 | > 9640 nM |  |
| CCOC(=O)Cn1cc(CN[C@@H](C)[C@H]2CC[C@H]3[C@@H]4CC=C5C[C@@H](OC(C)=O)CC[C@]5(C)[C@H]4CC[C@]23C)nn1 | 6.18 | 5.11 | 5.31 | > 1.94 | > 1.22 | > 14.4 | > 9490 nM |  |
| CC(=O)O[C@H]1CC[C@@]2(C)C(=CC[C@H]3[C@@H]4CC[C@H]([C@H](C)NCc5cn(CCCc6ccccc6)nn5)[C@@]4(C)CC[C@@H]32)C1 | 6.70 | 5.20 | 5.52 | > 2.99 | > 1.42 | > 44.7 | > 8950 nM |  |
| CC(C)=CCC/C(C)=C/Cn1cc(CNC[C@](C)(O)[C@H]2CC[C@H]3[C@@H]4CC=C5C[C@@H](O)CC[C@]5(C)[C@H]4CC[C@@]32C)nn1 | 6.19 | 5.05 | 6.11 | > 11.4 | > 0.98 | > 13.6 | > 8850 nM |  |
| CC(C)=CCC/C(C)=C/Cn1cc(CN[C@@H](C)[C@H]2CC[C@H]3[C@@H]4CC=C5C[C@@H](O)CC[C@]5(C)[C@H]4CC[C@]23C)nn1 | 6.19 | 5.50 | 5.77 | > 5.56 | > 2.95 | > 14.6 | > 9350 nM |  |
| C[C@@H](NCc1cn(Cc2ccccc2)nn1)[C@H]1CC[C@H]2[C@@H]3CC=C4C[C@@H](O)CC[C@]4(C)[C@H]3CC[C@]12C | 5.75 | 5.61 | 5.21 | > 1.67 | > 4.14 | > 5.78 | > 10200 nM |  |
| Nc1nc(N)nc(Nc2ccc([As]3SCC(CO)S3)cc2)n1 (stereo unspecified) [MELARSOPROL] |  |  |  |  |  | 62.5 |  | 12500 nM |
